Laboratory results reported in US8507219B2, “Method of treating inflammation with statins” (MUSC Foundation for Research Development, priority 1997, dated 2013).
Entries after “also recorded” stand apart in the source; their conditions may differ. Read-outs that look alike come from different tables or passages of the source.

Tests used:
[1] = tested on: astrocytes, microglia or macrophages
From the text: Cell viability Cytotoxic effects of the inhibitors were deter-mined by measuring the cell viability by Trypan blue exclusion.

[2] = tested on: sterol synthesis; details: Sinensky et al., 1991; read-out: IC50 for inhibition of sterol synthesis; cited from earlier work
[3] = human, in vivo
[4] = tested on: intracellular GSH in rat primary astrocytes; assay: Intracellular GSH / GSSG in rat primary astrocytes; type: cell-based; details: 10 mM NAC 1 h; TNF-α or IL-1β 50 ng/ml; diamide 0.5 mM
Experimental: Measurement of reduced glutathione (GSH) concentration in rat primary astrocytes Concentration of intracellular GSH was measured using a colorimetric assay kit for GSH from RandD, USA. Briefly, 2×10^6 cells were homogenized in 500 μl of ice-cold 5% metaphosphoric acid and centrifuged at 3000 g for 10 min. Supernatants were used to assay GSH using 4-chloro-1-methyl-7-trifluoromethyl-quinolinium methylsulfate and 30% NaOH at 400 nm.
Measurement of GSH (Reduced Glutathione) and GSSG Oxidized Glutathione Concentration of intracellular reduced GSH was measured using a calorimetric assay kit for GSH from R & D Systems. Briefly, 2×10^6 cells were homogenized in 500 μl of ice-cold 5% metaphosphoric acid and centrifuged at 3000×g for 10 min. Supernatants were used to assay GSH using 4-chloro-1-methyl-7-trifluoromethylquinolinium methylsulfate and 30% NaOH at 400 nm. Concentration of GSSG was determined according to the method of Griffith (1980) after derivatization with 2-vinylpyridine for 30 min at room temperature.

Compound	viability (trypan blue exclusion) [1]	viability (trypan blue exclusion) ([1]; rat)	IC50 [2] [nM]	adverse events leading to withdrawal [3]	intracellular level of GSH / GSSG [4]
CC[C@H](C)C(=O)O[C@H]1C[C@@H](C)C=C2C=C[C@H](C)[C@H](CC[C@@H]3C[C@@H](O)CC(=O)O3)[C@H]21 [Lovastatin]	had no effect on the viability of astrocytes, microglia, or macrophages	none of the compounds lovastatin, mevastatin, NaPA, TNF-α, IL-1β, IFN-γ, or LPS had a significant effect on the viability	10	persistent diarrhea and a marked elevation of serum creatine kinase levels	
CC(=O)N[C@@H](CS)C(=O)O [NAC, N-acetyl cysteine]					intracellular level of GSH did not decrease when cells were stimulated with cytokines in presence of NAC; also recorded: lack of decrease of GSH
